Experimental data published in patent US11299496B2, “Ligands for alpha-7 nicotinic acetylcholine receptors and methods of treating neurological and inflammatory conditions” (Northeastern University, priority 2014, dated 2022).

Molecular target: T1, human alpha-7 nAChR (Homo sapiens, UniProt P36544)
T1 construct: expressed in transfected cells; host or cells: Xenopus laevis oocytes (cRNA injection)
Experiment: Two-electrode voltage clamp of alpha-7 nAChR expressed in Xenopus oocytes (net charge)
Format: cell-based
Conditions: area under the curve of current vs. time; for Charge Alone: compound alone acting as an allosteric agonist; for Charge +C: compound together with choline or ACh, includes PAM and ago-PAM activity; call rule not given here
Method: The human alpha-7 nAChR receptor clone was obtained from Dr. Jon Lindstrom {University of Pennsylvania, Philadelphia, Pa.), aid the RIC-3 clone from Dr. Millet Treinin (Hebrew University, Jerusalem, Israel) for the purpose of co-injection with a7 to improve the level and speed of receptor expression (Halevi et al., 2003). After linearization and purification of cloned cDNA's, RNA, transcripts were prepared rising the appropriate mMessage mMachine kit tiom Ambion (Austin, Tex.).
Expression in X, laeivis Oocytes
Oocytes were obtained from mature (>9 cm) female Xenopus laeivis African frogs (Nasco, Ft. Atkinson, Wis.). Frogs were anesthetized in 0.7 g/L solution of ethyl 3-aminobenzoate methanesulfonate buffered with sodium bicarbonate, and oocytes were surgically removed through an abdominal incision. Harvested oocytes were treated with 1.25 mg/ml collagenase (Worthington Biochemicals, Freehold, N.J.) in calcium-free Barth's solution (88 mM NaCl, 1 mM KCl, 2.38 mM NaHCO3, 0.82 mM MgSO4, 15 mM HEPES, 12 mg/L tetracycline, pH 7.6) for 3-4 hours to remove the follicular layer. Stage-5 oocytes were isolated and injected with 50 nL (5-20 ng) of human alpha-7 and RIC-3 cRNA. Suitable levels of receptor expression were typically achieved 2-6 days after injection of cRNA. For experiments involving the PAM 4BP-TQS/GAT-107, where standard levels of expression result in ion currents too large to be recorded in voltage clamp, experiments were typically conducted 1-3 days after RNA injection.
Two-electrode voltage clamp experiments were conducted using OpusXpress6000A (Molecular Devices, Sunnyvale, Calif.), an integrated system that provides automated impalement and voltage clamp of up to eight oocytes in parallel. Both the current and voltage electrodes were filled with 3 M KCl, and oocytes were clamped at a holding potential of −60 mV. Data were collected at 50 Hz and filtered at 20 Hz. The oocytes were bath-perfused with Ringer's solution (115 mM NaCl, 10 mM HEPES, 2.5 mM KCl, 1.8 mM CaCl2, pH 7.3), and agonist solutions were delivered from a 96-well drug plate using disposable tips. Flow rates were set at 2 mL/min, with each drug or control solution delivered in 12 s durations, followed˜by 181 s washouts with Ringer's unless noted otherwise.
Experimental Protocols and Data Analysis
Responses of human alpha-7 receptors to agonists were measured as both peek current and net charge measured over a 120 s period beginning with the compound application (Papke and Papke, 2002). […] In experiments involving positive allosteric modulators (PAMs), the fast desensitization of alpha-7 was eliminated, allowing peak currents to be used as a valid measurement of the receptor-mediated responses (Wang et al., 2012; Williams et al., 2011).
Oocytes received two control ACh applications prior to receiving any drug in order to establish a steady reference response, and they received one or more control ACh applications at the end of all experiments. For experiments involving drug incubation through bath applications, all responses were normalized to the average of two ACh control responses taken immediately prior to the switch of bath solution, for each cell individually. These normalization procedures had the effect of compensating for differing levels of receptor expression among the multiple oocytes used in each experiment. Each experiment was conducted on at least four oocytes, with mean values and standard errors (S.E.M.) calculated from their normalized responses. […]

T1 sequence (P36544 23-502): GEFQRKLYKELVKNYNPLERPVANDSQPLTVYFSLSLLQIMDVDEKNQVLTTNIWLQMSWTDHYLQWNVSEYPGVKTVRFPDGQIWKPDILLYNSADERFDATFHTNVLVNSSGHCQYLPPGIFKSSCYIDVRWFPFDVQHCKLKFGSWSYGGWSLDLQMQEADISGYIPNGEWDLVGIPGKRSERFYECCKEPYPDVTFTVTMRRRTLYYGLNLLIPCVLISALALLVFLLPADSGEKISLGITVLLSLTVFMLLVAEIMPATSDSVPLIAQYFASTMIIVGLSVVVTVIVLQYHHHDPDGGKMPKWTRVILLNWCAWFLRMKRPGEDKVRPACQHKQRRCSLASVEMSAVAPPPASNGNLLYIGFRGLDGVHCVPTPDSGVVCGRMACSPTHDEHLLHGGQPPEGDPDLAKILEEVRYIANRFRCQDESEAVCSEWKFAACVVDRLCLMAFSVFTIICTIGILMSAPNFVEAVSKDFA

SMILES	Charge Alone	Charge +C
CCCNS(=O)(=O)c1ccc2c(c1)[C@H]1C=CC[C@H]1[C@@H](c1ccccc1)N2 (stereo in doubt) [Compound 112, 4-phenyl-N-propyl-3a,4,5,9b-tetrahydro-3H-cyclopenta[c]quinoline-8-sulfonamide]	Inactive	Inactive
CC(=O)c1ccc2c(c1)[C@H]1C=CC[C@H]1[C@@H](c1cc3c(cc1Br)OCO3)N2 [Compound 30]	Inactive	Inactive
NS(=O)(=O)c1ccc2c(c1)[C@H]1C=CC[C@H]1[C@@H](c1ccc(I)cc1)N2 [Compound 46, (3aR,4S,9bS)-4-(4-iodophenyl)-3a,4,5,9b-tetrahydro-3H-cyclopenta[c]quinoline-8-sulfonamide]	242	684
C=C(C)CNS(=O)(=O)c1ccc2c(c1)[C@H]1C=CC[C@H]1[C@@H](c1ccc(Br)cc1)N2 (stereo in doubt) [Compound 108, 4-(4-bromophenyl)-N-(2-methylallyl)-3a,4,5,9b-tetrahydro-3H-cyclopenta[c]quinoline-8-sulfonamide]	Inactive	Inactive
CCCNS(=O)(=O)c1ccc2c(c1)[C@H]1C=CC[C@H]1[C@@H](c1ccc(Br)cc1)N2 (stereo in doubt) [Compound 107, 4-(4-bromophenyl)-N-propyl-3a,4,5,9b-tetrahydro-3H-cyclopenta[c]quinoline-8-sulfonamide]	Inactive	Inactive
CC(C)(C)COC(=O)c1ccc([C@H]2Nc3ccc(S(N)(=O)=O)cc3[C@H]3C=CC[C@H]32)cc1 (stereo in doubt) [Compound 70, neopentyl4-(8-sulfamoyl-3a,4,5,9b-tetrahydro-3H-cyclopenta[c]quinolin-4-yl)benzoate]	52	487
NS(=O)(=O)c1ccc2c(c1)[C@H]1C=CC[C@H]1[C@@H](c1cccs1)N2 (stereo in doubt) [Compound 17, 4-(thiophen-2-yl)-3a,4,5,9b-tetrahydro-3H-cyclopenta[c]quinoline-8-sulfonamide]	0.031	21.096
O=S(=O)(Nc1ccccc1)c1ccc2c(c1)[C@H]1C=CC[C@H]1[C@@H](c1ccc(Br)cc1)N2 (stereo in doubt) [Compound 103, 4-(4-bromophenyl)-N-phenyl-3a,4,5,9b-tetrahydro-3H-cyclopenta[c]quinoline-8-sulfonamide]	Inactive	Inactive
NS(=O)(=O)c1ccc2c(c1)[C@H]1C=CC[C@H]1[C@@H](c1scc(Br)c1Br)N2 (stereo in doubt) [Compound 38, 4-(3,4-dibromothiophen-2-yl)-3a,4,5,9b-tetrahydro-3H-cyclopenta[c]quinoline-8-sulfonamide]	18	1246
CC(C)OC(=O)Nc1ccc([C@H]2Nc3ccc(S(N)(=O)=O)cc3[C@H]3C=CC[C@H]32)cc1 (stereo in doubt) [Compound 68, isopropyl (4-(8-sulfamoyl-3a,4,5,9b-tetrahydro-3H-cyclopenta[c]quinolin-4-yl)phenyl)carbamate]	80	156
[N-]=[N+]=Nc1c(F)c(F)c([C@H]2Nc3ccc(S(N)(=O)=O)cc3[C@H]3C=CC[C@H]32)c(F)c1F [Compound 43, (3aR,4S,9bS)-4-(4-azido-2,3,5,6-tetrafluorophenyl)-3a,4,5,9b-tetrahydro-3H-cyclopenta[c]quinoline-8-sulfonamide]	–	5.5
CS(=O)(=O)c1ccc2c(c1)[C@H]1C=CC[C@H]1[C@@H](c1ccc(Br)cc1)N2 [Compound 117, 4-(4-bromophenyl)-8-(methylsulfonyl)-3a,4,5,9b-tetrahydro-3H-cyclopenta[c]quinolone]	Inactive	Inactive
NS(=O)(=O)c1cccc2c1N[C@H](c1ccc(Br)cc1)[C@@H]1CC=C[C@H]21 (stereo in doubt) [Compound 11, 4-(4-bromophenyl)-3a,4,5,9b-tetrahydro-3H-cyclopenta[c]quinoline-6-sulfonamide]	Inactive	Inactive
NS(=O)(=O)c1ccc2c(c1)C1C=CCC1C(c1ccc(C(=O)O)cc1)N2 (stereo not shown) [Compound 58, 4-(8-sulfamoyl-3a,4,5,9b-tetrahydro-3H-cyclopenta[c]quinolin-4-yl)benzoic acid]	Inactive	Inactive
NS(=O)(=O)c1ccc2c(c1)[C@H]1C=CC[C@H]1[C@@H](c1cc3ccccc3s1)N2 (stereo in doubt) [Compound 41, 4-(benzo[b]thiophen-2-yl)-3a,4,5,9b-tetrahydro-3H-cyclopenta[c]quinoline-8-sulfonamide]	3	528
NS(=O)(=O)c1ccc2c(c1)[C@H]1C=CC[C@H]1[C@@H](c1ccc(Br)c3ccccc13)N2 (stereo in doubt) [Compound 53, 4-(4-bromonaphthalen-1-yl)-3a,4,5,9b-tetrahydro-3H-cyclopenta[c]quinoline-8-sulfonamide]	–	76
CCC(C)CNS(=O)(=O)c1ccc2c(c1)[C@H]1C=CC[C@H]1[C@@H](c1ccc(Br)cc1)N2 (stereo in doubt) [Compound 109, 4-(4-bromophenyl)-N-(2-methylbutyl)-3a,4,5,9b-tetrahydro-3H-cyclopenta[c]quinoline-8-sulfonamide]	Inactive	Inactive
NS(=O)(=O)c1ccc2c(c1)[C@H]1C=CC[C@H]1[C@@H](c1csc3ccccc13)N2 (stereo in doubt) [Compound 39, 4-(benzo[b]thiophen-3-yl)-3a,4,5,9b-tetrahydro-3H-cyclopenta[c]quinoline-8-sulfonamide]	22	145
CC(C)(C)CCCc1ccc([C@H]2Nc3ccc(S(N)(=O)=O)cc3[C@H]3C=CC[C@H]32)cc1 (stereo in doubt) [Compound 66, 4-(4-(4,4-dimethylpentyl)phenyl)-3a,4,5,9b-tetrahydro-3H-cyclopenta[c]quinoline-8-sulfonamide]	330	1240
NS(=O)(=O)c1ccc2c(c1)[C@H]1C=CC[C@H]1CN2 (stereo in doubt) [Compound 33, 3a,4,5,9b-tetrahydro-3H-cyclopenta[c]quinoline-8-sulfonamide]	Inactive	Inactive
NS(=O)(=O)c1ccc2c(c1)[C@H]1CCC[C@H]1[C@@H](c1ccc(Br)cc1)N2 (stereo in doubt) [Compound 5, 4-(4-bromophenyl)-2,3,3a,4,5,9b-hexahydro-1H-cyclopenta[c]quinoline-8-sulfonamide]	23	93
CCNS(=O)(=O)c1ccc2c(c1)[C@@H]1C=CC[C@@H]1[C@@H](c1ccc(Br)cc1)N2 [Compound 113]	Inactive	Inactive
NS(=O)(=O)c1ccc([C@H]2Nc3ccc(Br)cc3[C@H]3C=CC[C@H]32)cc1 (stereo in doubt) [Compound 4, 4-(8-bromo-3a,4,5,9b-tetrahydro-3H-cyclopenta[c]quinolin-4-yl)benzenesulfonamide]	0	8.4
NS(=O)(=O)c1ccc2c(c1)[C@H]1C=CC[C@H]1[C@@H](c1cccnc1)N2 [Compound 51, 4-(pyridin-3-yl)-3a,4,5,9b-tetrahydro-3H-cyclopenta[c]quinoline-8-sulfonamide]	–	10
NS(=O)(=O)c1ccc([C@H]2Nc3ccc(S(N)(=O)=O)cc3[C@H]3C=CC[C@H]32)cc1 (stereo in doubt) [Compound 28, 4-(4-sulfamoylphenyl)-3a,4,5,9b-tetrahydro-3H-cyclopenta[c]quinoline-8-sulfonamide]	–	128
